# Laboratory results as given in paper PMC11726150, “Pre‐ADMET studies of 5‐(3′,4′‐dihydroxyphenyl)‐γ‐valerolactone, the bioactive intestinal metabolite of proanthocyanidins” (Archiv Der Pharmazie, 2024).
# Legend:
# Wt‐MDCK cells = test: MTT cell viability assay; assay type: cell-based, canine; settings: 20 μM, data not shown
# Description: (§1) The effect of test samples on cell viability was measured using an MTT assay. Briefly, exponentially growing 2 × 10^4 cells/200 μL were seeded in 96‐well plates and allowed to grow until reaching their differentiation state. Cells were treated with different concentrations of VL (50–1.6 µM) and positive control camptothecin (30–1 μM) serially diluted in serum‐free medium. After incubation, 10 μL of MTT dye (5 mg/mL stock in PBS) was added to each well, and plates were additionally incubated for 4 h. Further, media were aspirated, and cells were washed with 100 μL of phosphate buffer saline. The formazan blue crystals formed by viable cells were dissolved in 150 μL of DMSO, and the absorbance was measured at 580 nm on a Bio‐Tek, Synergy HT Multi‐Mode, plate reader. The % decrease in viability of sample‐treated cells was calculated compared with vehicle‐treated cells.^[ [46] ^]
# HepG2 cells = test: MTT cell viability assay; assay type: cell-based, human; settings: HepG2, 20 μM, data not shown
# Description: as §1
# LS174T cells = test: MTT cell viability assay; assay type: cell-based, human; settings: 20 μM, data not shown
# Description: as §1
# Caco2 cells = test: MTT cell viability assay; assay type: cell-based, human; settings: Caco2, 20 μM, data not shown
# Description: as §1
# PXR = target: T1, PXR (Homo sapiens, UniProt O75469); assay type: cell-based; parameters: expressed in transfected cells; host or cells: HepG2 and LS174T cells, transient electroporation; settings: HepG2 cells, 10 µM
# T1 sequence (O75469 1-434): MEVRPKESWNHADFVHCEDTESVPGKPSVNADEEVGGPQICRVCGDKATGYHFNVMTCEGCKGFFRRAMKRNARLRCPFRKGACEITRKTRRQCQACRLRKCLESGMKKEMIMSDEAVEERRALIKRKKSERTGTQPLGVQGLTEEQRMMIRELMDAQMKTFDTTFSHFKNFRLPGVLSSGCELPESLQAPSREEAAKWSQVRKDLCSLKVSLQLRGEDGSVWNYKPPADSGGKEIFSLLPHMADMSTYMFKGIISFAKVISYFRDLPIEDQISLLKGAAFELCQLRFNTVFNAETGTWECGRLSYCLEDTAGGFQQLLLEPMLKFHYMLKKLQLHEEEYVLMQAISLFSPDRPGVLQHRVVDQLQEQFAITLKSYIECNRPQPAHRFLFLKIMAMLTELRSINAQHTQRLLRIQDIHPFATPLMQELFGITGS
# Description: The PXR activation potential of VL was determined in transiently transfected HepG2 and LS174T cells as described earlier.^[ [50] ^] In brief, 24‐h‐old cells having 70%−80% confluency were trypsinized and transfected with pSG5‐hPXR (25 μg) and PCR‐5 (25 μg) plasmid DNA by electroporation at 180 V (1 pulse for 70 ms). Cells were incubated at room temperature for 8 min and floating dead cells were carefully removed. Cells were seeded in 96‐well plates at a density of 50,000 cells/well. […] Following 24 h of incubation, the culture medium was aspirated and 40 μL of luciferase reagent (Promega Corporation) was added to each well. Luminescence was measured using a Spectramax M5 plate reader (Molecular Devices) and the fold increase in luciferase activity among sample‐treated cells was calculated in comparison with the vehicle‐treated (DMSO) cells.
# P‐gp = test: Rhodamine‐123 uptake assay, induction (48 h), differentiated Caco2 cells; assay type: cell-based, human; settings: 10 µM, 48 h treatment; 0.1% DMSO vehicle control = 100%
# Description: P‐gp modulation was determined in differentiated Caco2 cells by Rh‐123 uptake assay.^[ [49] ^] In brief, cells in the logarithmic growth phase with 70%–80% confluency were harvested and seeded at a density of 2 × 10^4/well of a 96‐well plate. Cells were allowed to grow for 21 days in a CO2 incubator changing the medium every other day.
# After treatment, cells were washed with Hank's buffer and 200 μL of phenol, and serum‐free DMEM/F12 medium containing […] of Rh‐123 was added and cells were incubated for 90 min. The final steps were as described previously.
# Caco2 monolayers = test: In vitro transport study across 21‐day Caco2 monolayers; assay type: in vitro ADME, human; settings: Caco2 model, VL 50 μM dosed (VLS formed as metabolite), controls 10 μM, N = 4; for P app A–B (mean ± SD): absorptive direction; for P app B–A (mean ± SD): secretory direction
# Description: (§2) Caco2 cells between passage numbers 42–50 and MDCK cells between passage numbers 21–26 were used for transport studies; the assay was conducted as reported by Volpe^[ [33] ^] with slight modifications. Transport experiments were performed in 12‐well Transwell plates. Caco2 cells were seeded at a density of 60,000 cells/cm^2 and grown for 21 days, with change of media every 3 days, while MDCK cells were seeded at a density of 70,000 cells/cm^2 and grown for 5 days, changing the medium daily. The physiological and morphological formation of a confluent monolayer was evaluated by measuring the TEER value: Caco2 monolayers became confluent 1 week after seeding with TEER values greater than 450 Ω/cm^2, while MDCK monolayers became confluent 24 h after seeding with TEER values greater than 90 Ω/cm^2. Phenol red and serum‐free DMEM/F12 medium was used as transport buffer. For bidirectional transport, VL (50 μM) and control compound (propranolol and paclitaxel, 10 μM) were added to the apical side to determine apical to basolateral transport (A–B; absorptive direction) and to the basal side to determine basolateral to apical transport (B–A; secretory direction). The volume of the apical and basolateral chambers was 0.5 and 1.5 mL, respectively. Aliquots of 120 μL were taken from the basolateral (for A–B transport) or the apical (for B–A transport) chamber at 30, 60, 90, and 120 min. An equal volume was replaced with a transport buffer at every time point. At the beginning and at the end of the experiment, an aliquot was also taken from the apical or basolateral chamber for analysis of the drug. To determine the integrity of monolayers, TEER values were measured before and after the experiment. In addition, at the end of the experiment cells were collected and lysed to evaluate the compound intake. Briefly, cells were washed twice with cold PBS and 200 µL of cold MeOH was added to detach and lysate the cells; subsequently, cells were collected into lo‐bind Eppendorf and sonicated in ice for 10 min, then centrifuged for 15 min at 4°C at 14,000 rpm (Eppendorf Centrifuge 5430 R). The supernatant was collected and used for further analysis.
# (§3) The apparent permeability P app (cm/s) of compounds was calculated from the following equation (Equation 1), while P app (cm/s) of the metabolites was calculated from the equation (Equation 2): (1) Papp=dQ/dt×1/C×1/A.
# (§4) Equation (1) for calculating P app (cm/s) of tested reference compounds. (2) Papp=Metabolic cleareance/A.
# (§5) Equation (2) for calculating P app (cm/s) of compound metabolites.
# (§6) with Metabolic cleareance=Rate of metabolism/C and where dQ/dt is the rate of transport, C is the initial concentration in the donor compartment, and A is the surface area of the filter. To quantify the rate of transport, cumulative amounts of test compounds were plotted against time (min).
# (§7) Efflux ratio was calculated using the following equation (Equation 3)^[ [48] ^]: (3) Efflux ratio=Papp(B−A)/Papp(A−B).
# [1] = as above; assay type: in vitro ADME, human; settings: human, Caco-2, Caco2 model, N = 4; for Papp A→B at 120 min: absorptive direction, read-out: P app A–B (mean ± SD); for Papp A→B at 120 min / Papp B→A at 120 min: VL 50 μM dosed (VLS formed as metabolite), controls 10 μM; for Papp B→A at 120 min: secretory direction, read-out: P app B–A (mean ± SD); for efflux ratio at 120 min: Papp(B−A)/Papp(A−B), read-out: Efflux ratio (mean ± SD)
# Description: as §2, §3, §4, §5, §6, §7
# Wt‐MDCK monolayers = test: In vitro transport study across 5‐day Wt‐MDCK monolayers; assay type: in vitro ADME, canine; settings: Wt‐MDCK model, VL 50 μM dosed (VLS formed as metabolite), controls 10 μM, N = 4; for P app A–B (mean ± SD): absorptive direction; for P app B–A (mean ± SD): secretory direction
# Description: as §2, §3, §4, §5, §6, §7
# [2] = as above; assay type: in vitro ADME, canine; settings: dog, Wt‐MDCK model, N = 4; for Papp A→B at 120 min: absorptive direction, read-out: P app A–B (mean ± SD); for Papp A→B at 120 min / Papp B→A at 120 min: VL 50 μM dosed (VLS formed as metabolite), controls 10 μM; for Papp B→A at 120 min: secretory direction, read-out: P app B–A (mean ± SD); for efflux ratio at 120 min: Papp(B−A)/Papp(A−B), read-out: Efflux ratio (mean ± SD)
# Description: as §2, §3, §4, §5, §6, §7
# [3] = parameters: method as in earlier work; settings: healthy subjects, ref 43 (Di Pede et al.), cited from earlier work; for Cmax: human plasma, after PACs intake, read-out: C MAX (mean ± SD) in plasma; for average urinary excretion (% of ingested dose): human urine
smiles,measurement,setting,value
CC[C@@]1(O)C(=O)OCc2c1cc1n(c2=O)Cc2cc3ccccc3nc2-1 [camptothecin],effect on cell viability,Wt‐MDCK cells,dramatically reduced the viability
same,effect on cell viability,HepG2 cells,dramatically reduced the viability
same,effect on cell viability,LS174T cells,dramatically reduced the viability
same,effect on cell viability,Caco2 cells,dramatically reduced the viability
"CO[C@H]1/C=C/O[C@@]2(C)Oc3c(C)c(O)c4c(O)c(c(/C=N/N5CCN(C)CC5)c(O)c4c3C2=O)NC(=O)/C(C)=C\C=C\[C@H](C)[C@H](O)[C@@H](C)[C@@H](O)[C@@H](C)[C@H](OC(C)=O)[C@@H]1C [RIF, rifampicin, reference compound]",PXR activation,PXR,3.4 folds
same,intracellular accumulation of Rh‐123,P‐gp,75%
CC(=O)O[C@H]1C(=O)[C@@]2(C)[C@H]([C@H](OC(=O)c3ccccc3)[C@]3(O)C[C@H](OC(=O)[C@H](O)[C@@H](NC(=O)c4ccccc4)c4ccccc4)C(C)=C1C3(C)C)[C@]1(OC(C)=O)CO[C@@H]1C[C@@H]2O [Paclitaxel],P app A–B (mean ± SD),Caco2 monolayers,1.202 ×10⁻⁶ cm/s
same,P app B–A (mean ± SD),Caco2 monolayers,3.421 ×10⁻⁶ cm/s
same,Papp A→B at 120 min,[1],1.2 ×10⁻⁶ cm/s
same,Papp B→A at 120 min,[1],3.42 ×10⁻⁶ cm/s
same,efflux ratio at 120 min,[1],2.54 ± 2.06
same,P app A–B (mean ± SD),Wt‐MDCK monolayers,5.183 ×10⁻⁶ cm/s
same,P app B–A (mean ± SD),Wt‐MDCK monolayers,2.952 ×10⁻⁶ cm/s
same,Papp A→B at 120 min,[2],5.18 ×10⁻⁶ cm/s
same,Papp B→A at 120 min,[2],2.95 ×10⁻⁶ cm/s
same,efflux ratio at 120 min,[2],0.55 ± 0.089
O=C1CC[C@H](Cc2ccc(OS(=O)(=O)O)c(O)c2)O1 [3ʹ‐OH‐PVL‐4ʹ‐sulfate],Cmax,[3],368 ± 156 nM
same,average urinary excretion (% of ingested dose),[3],11.3% ± 14.8%
CC(C)NCC(O)COc1cccc2ccccc12 (stereo not shown) [Propranolol],P app A–B (mean ± SD),Caco2 monolayers,15.39 ×10⁻⁶ cm/s
same,P app B–A (mean ± SD),Caco2 monolayers,12.96 ×10⁻⁶ cm/s
same,Papp A→B at 120 min,[1],15.4 ×10⁻⁶ cm/s
same,Papp B→A at 120 min,[1],13 ×10⁻⁶ cm/s
same,efflux ratio at 120 min,[1],0.859 ± 0.085
same,P app A–B (mean ± SD),Wt‐MDCK monolayers,10.05 ×10⁻⁶ cm/s
same,P app B–A (mean ± SD),Wt‐MDCK monolayers,5.364 ×10⁻⁶ cm/s
same,Papp A→B at 120 min,[2],10.1 ×10⁻⁶ cm/s
same,Papp B→A at 120 min,[2],5.36 ×10⁻⁶ cm/s
same,efflux ratio at 120 min,[2],0.535 ± 0.058
O=C1CC[C@H](Cc2ccc(O)c(OC3OC(C(=O)O)C(O)C(O)C3O)c2)O1 (stereo partly shown) [4ʹ‐OH‐PVL‐3ʹ‐glucuronide],Cmax,[3],229 ± 345 nM
same,average urinary excretion (% of ingested dose),[3],3.1% ± 3.3%
COc1cccc2c1C(=O)c1c(O)c3c(c(O)c1C2=O)C[C@@](O)(C(=O)CO)C[C@@H]3O[C@H]1C[C@H](N)[C@H](O)[C@H](C)O1 [doxorubicin],effect on cell viability,Wt‐MDCK cells,dramatically reduced the viability
same,effect on cell viability,HepG2 cells,dramatically reduced the viability
same,effect on cell viability,LS174T cells,dramatically reduced the viability
same,effect on cell viability,Caco2 cells,dramatically reduced the viability
